# Results from the supplement of paper PMC10307832.
# Legend:
# Assay in all cases: relative viability (nuclei count vs DMSO), 5 days (fraction); higher = more cells survive
# [1] = compound: N#CC[C@H](C1CCCC1)n1cc(-c2ncnc3[nH]ccc23)cn1 [Ruxolitinib] + CC1(C)CCC(c2ccc(Cl)cc2)=C(CN2CCN(c3ccc(C(=O)NS(=O)(=O)c4ccc(N[C@H](CCN5CCOCC5)CSc5ccccc5)c(S(=O)(=O)C(F)(F)F)c4)cc3)CC2)C1 [Navitoclax] (partner 0.5 µM)
# Outline: (§1)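 For relative viability, nuclei counts in treated wells were divided by those in vehicle wells. Lung cancer cell lines had been pin-tool dosed in 1536-well plates the day after seeding and cultured for 5 days, then fixed and stained in one step (final 0.05% Triton X-100, 1% formaldehyde, 1 ug/ml Hoechst) and imaged at 4×. Doses were one drug alone or a fixed anchor-drug dose plus five library-drug doses (not always all listed) in √10 steps, and values are duplicate-plate medians.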
# [2] = compound: CS(=O)(=O)c1ccc(-c2cnc(N)c(C(=O)Nc3ccccc3)n2)cc1 [VE-821] + CC1(C)CCC(c2ccc(Cl)cc2)=C(CN2CCN(c3ccc(C(=O)NS(=O)(=O)c4ccc(N[C@H](CCN5CCOCC5)CSc5ccccc5)c(S(=O)(=O)C(F)(F)F)c4)cc3)CC2)C1 [Navitoclax] (partner 0.5 µM)
# Outline: as §1
# [3] = compound: N#CC[C@H](C1CCCC1)n1cc(-c2ncnc3[nH]ccc23)cn1 [Ruxolitinib] + Cc1nc(NC(=O)N2CCC[C@H]2C(N)=O)sc1-c1ccnc(C(C)(C)C(F)(F)F)c1 [Alpelisib] (partner 2 µM)
# Outline: as §1
# [4] = compound: N#CC[C@H](C1CCCC1)n1cc(-c2ncnc3[nH]ccc23)cn1 [Ruxolitinib] + Cc1cc(Nc2cc(N3CCN(C)CC3)nc(Sc3ccc(NC(=O)C4CC4)cc3)n2)n[nH]1 [Tozasertib] (partner 0.1 µM)
# Outline: as §1
Cell Line,relative viability ([1]; first compound 0.08 µM),relative viability ([1]; first compound 0.253 µM),relative viability ([1]; first compound 0.8 µM),relative viability ([1]; first compound 2.53 µM),relative viability ([1]; first compound 8 µM),relative viability ([2]; first compound 0.08 µM),relative viability ([2]; first compound 0.253 µM),relative viability ([2]; first compound 0.8 µM),relative viability ([2]; first compound 2.53 µM),relative viability ([2]; first compound 8 µM),relative viability ([3]; first compound 0.08 µM),relative viability ([3]; first compound 0.253 µM),relative viability ([3]; first compound 0.8 µM),relative viability ([3]; first compound 2.53 µM),relative viability ([3]; first compound 8 µM),relative viability ([4]; first compound 0.08 µM),relative viability ([4]; first compound 0.253 µM),relative viability ([4]; first compound 0.8 µM),relative viability ([4]; first compound 2.53 µM),relative viability ([4]; first compound 8 µM)
COR-L23,1.03,1.1,1.21,0.907,0.638,1.05,1.01,1.23,1.15,0.894,0.854,0.827,0.821,0.731,0.502,0.204,0.217,0.204,0.192,0.146
COR-L 105,0.707,0.701,0.89,0.694,0.515,0.797,0.683,0.651,0.606,0.725,0.771,1.03,0.84,0.86,0.718,0.383,0.314,0.423,0.475,0.35
EKVX,1,0.872,0.881,0.821,0.912,1.17,0.975,0.632,1.01,0.907,0.769,0.862,1,0.92,0.832,0.392,0.439,0.463,0.282,0.443
EMC-BAC-2,1.11,1.13,1.18,1.09,1.06,1.23,1.12,1.2,1.21,1.16,0.725,0.72,0.742,0.637,0.568,0.292,0.288,0.279,0.262,0.236
EPLC-272H,1.48,1.14,1.31,1.05,0.954,1.52,1.13,1.33,1.12,1.35,0.841,0.903,1.07,1.06,1.01,0.25,0.407,0.241,0.345,0.264
H3255,0.248,0.393,0.474,0.423,0.425,0.563,0.485,0.571,0.56,0.425,,0.599,0.749,0.521,0.608,0.612,0.568,0.841,0.56,0.682
HARA,1.14,1.11,1.17,1.14,1.25,1.23,1.13,1.09,1.15,0.99,0.862,0.817,0.785,0.697,0.857,0.113,0.111,0.112,0.107,0.119
HCC-15,0.688,0.686,0.699,0.629,0.567,0.813,0.706,0.778,0.772,0.676,0.844,0.875,0.923,0.812,0.73,0.406,0.434,0.519,0.481,0.421
